{"source": "patent US4963553A", "about": "“4-[(substituted) alkylcarbonyl]-4,5-dihydro- and -4,5,6,7-tetrahydro-7-[(substituted)phenyl]pyrazolo[1,5-a]pyrimidines” (American Cyanamid Co., priority 1988, dated 1990)", "note": "Structures can show the parent of a compound that is named as a salt.", "data": [{"tested_on": "mice (hypoxic environment)", "assay": "Hypoxic survival test", "type": "in vivo, mouse (Royal Hart)", "details": "100 mg/kg, intraperitoneal, 10% oxygen, 5 minutes", "procedure": "(§1) The hypoxic survival test is a useful in vivo test for measuring the effectiveness of central nervous system-acting drugs in enhancing survival in an hypoxic environment relative to the known parasympathomimetic agent physostigmine.\n(§2) Drugs are tested by intraperitoneal injection of groups of mice 30 minutes prior to placing them in an hypoxic environment and measuring survival. The rationale of this test is that drugs which enhance survival under hypoxic conditions without concomitant depression or sedative side effects, do so by enhancing brain metabolism, i.e., by improving energy supply relative to demand and so preserving normal brain function under conditions of reduced energy metabolism. Considering the dependence of the brain on a constant supply of energy, drugs which have this property may have many far-reaching therapeutic indications, including aiding recovery from stroke and closed head injury and reducing the deleterious effects of age-related central nervous system deficits.\n(§3) In the hypoxic survival test, groups of 20 Royal Hart mice (6 weeks of age) were injected intraperitoneally with a test compound in saline at various doses ranging from 1 to 200 mg/kg, 30 minutes prior to placing them in an hypoxic mixture (10% oxygen, 90% […]) and measuring survival after 5 minutes.\n(§4) A control group of 20 mice was injected intraperitoneally with saline (0.01 ml/g of body weight) and processed as described above.\n(§5) Another group of 20 mice was injected intraperitoneally with 0.125 mg/kg of physostigmine in saline and processed as described above.", "units": {"% Survivors": "%"}, "values": [{"compound": "Cl.Cl.N#Cc1cnn2c1N(C(=O)CN1CCN(CCc3ccccc3)CC1)CC=C2c1cccc(C(F)(F)F)c1", "note": "[Example 132, 4,5-Dihydro-4-[[4-(2-phenylethyl)-1-piperazinyl)acetyl]-7-[3-(trifluoromethyl)phenyl]pyrazolo[1,5-a]pyrimidine-3-carbonitrile, dihydrochloride]", "% Survivors": 60}, {"compound": "N#Cc1cnn2c1N(C(=O)CN1CCN(Cc3cccc(C(F)(F)F)c3)CC1)CC=C2c1cccc(C(F)(F)F)c1", "note": "[Example 128, 4,5-Dihydro-4-[[4-[(3-trifluoromethylphenyl)methyl]-1-piperazinyl]acetyl]-7-[3-(trifluoromethyl)phenyl]pyrazolo[1,5-a]pyrimidine-3-carbonitrile]", "% Survivors": 40}, {"compound": "N#Cc1cnn2c1N(C(=O)CN1CCN(CCc3ccccc3)CC1)CC=C2c1cccc(C(F)(F)F)c1", "note": "[4,5-Dihydro-4-[[4-(2-phenylethyl)-1-piperazinyl]acetyl]-7-[3-trifluoromethyl)phenyl]pyrazolo[1,5-a]pyrimidine-3-carbonitrile]", "% Survivors": 90}, {"compound": "CC1C=C(c2cccc(C(F)(F)F)c2)n2ncc(C#N)c2N1C(=O)CN1CCN(Cc2ccccc2)CC1", "note": "(stereo not shown) [Example 72, 4,5-Dihydro-5-methyl-4-[[4-(phenylmethyl)-1-piperazinyl]acetyl]-7-[3-(trifluoromethyl)phenyl]pyrazolo[1,5-a]pyrimidine-3-carbonitrile]", "% Survivors": 25}]}, {"tested_on": "mice (hypoxic environment)", "assay": "Hypoxic survival test", "type": "in vivo, mouse (Royal Hart)", "details": "100 mg/kg, intraperitoneal, 10% oxygen, 5 minutes; listed as 4,5-Dihydro-4-[[4-[(3-trifluoromethyl-phenyl)methyl]-1-piperazinyl]acetyl]-7-[3-, dihydrochloride", "procedure": "as §1, §2, §3, §4, §5", "units": {"% Survivors": "%"}, "values": [{"compound": "N#Cc1cnn2c1N(C(=O)CN1CCN(Cc3cccc(C(F)(F)F)c3)CC1)CC=C2c1cccc(C(F)(F)F)c1", "note": "[Example 145, 4,5-Dihydro-7-[3-(trifluoromethyl)phenyl-4-[[4-[[3-(trifluoromethyl)phenyl]methyl]-1-piperazinyl]acetyl]pyrazolo[1,5-a]pyrimidine-3-carbonitrile, dihydrochloride]", "% Survivors": 85}]}, {"tested_on": "mice (hypoxic environment)", "assay": "Hypoxic survival test", "type": "in vivo, mouse (Royal Hart)", "details": "10% oxygen, after 5 minutes; physostigmine group 0.125 mg/kg intraperitoneal", "procedure": "as §1, §2, §3, §4, §5", "values": [{"compound": "CNC(=O)Oc1ccc2c(c1)[C@]1(C)CCN(C)[C@@H]1N2C", "note": "[physostigimine, reference compound]", "mice surviving (physostigmine-treated)": "60-80%"}]}, {"tested_on": "mice (hypoxic environment)", "assay": "Hypoxic survival test", "type": "in vivo, mouse (Royal Hart)", "details": "Mus musculus, ip, 5 min, 10 mg/kg, intraperitoneal, 10% oxygen, 5 minutes; read-out: % Survivors", "procedure": "as §1, §2, §3, §4, §5", "units": {"responders at 10 mg/kg": "%"}, "values": [{"compound": "O=C(CN1CCN(Cc2ccccc2)CC1)N1CC=C(c2cccc(C(F)(F)F)c2)n2ncc(Br)c21", "note": "[Example 154, 3-Bromo-4,5-dihydro-4-[[4-(phenylmethyl)-1-piperazinyl]acetyl]-7-[3-(trifluoromethyl)phenyl]pyrazolo[1,5-a]pyrimidine, dihydrochloride]", "responders at 10 mg/kg": 20}, {"compound": "N#Cc1cnn2c1N(C(=O)CN1CCN(Cc3c(Cl)cccc3Cl)CC1)CCC2c1cccc(C(F)(F)F)c1", "note": "(stereo not shown) [Example 54, 4-[[4-[(2,6-Dichlorophenyl)methyl]-1-piperazinyl]acetyl]-4,5,6,7-tetrahydro-7-[3-(trifluoromethyl)phenyl]pyrazolo[1,5-a]pyrimidine-3-carbonitrile]", "responders at 10 mg/kg": 25}, {"compound": "N#Cc1cnn2c1N(C(=O)CN1CCN(Cc3ccccc3)CC1)CC=C2c1ccc(Cl)cc1", "note": "[Example 58, 7-(4-Chlorophenyl)-4,5-dihydro-4-[[4-(phenylmethyl)-1-piperazinyl]acetyl]pyrazolo[1,5-a]pyrimidine-3-carbonitrile]", "responders at 10 mg/kg": 50}, {"compound": "N#Cc1cnn2c1N(C(=O)CN1CCN(Cc3ccccc3C(F)(F)F)CC1)CC=C2c1ccc(Cl)cc1", "note": "[Example 59, 7-(4-Chlorophenyl)-4,5-dihydro-4-[[4-[[2-(trifluoromethyl)phenyl]methyl]-1-piperazinyl]acetyl]pyrazolo[1,5-a]pyrimidine-3-carbonitrile]", "responders at 10 mg/kg": 55}, {"compound": "N#Cc1cnn2c1N(C(=O)CN1CCN(Cc3ccccc3C(F)(F)F)CC1)CC=C2c1cccc(C(F)(F)F)c1", "note": "[Example 152, 4,5-Dihydro-7-[3-(trifluoromethyl)phenyl]-4-[[4-[[2-(trifluoromethyl)phenyl]methyl]-1-piperazinyl]acetyl]pyrazolo[1,5-]pyrimidine-3-carbonitrile dihydrochloride]", "responders at 10 mg/kg": 30}]}, {"tested_on": "mice (hypoxic environment)", "assay": "Hypoxic survival test", "type": "in vivo, mouse (Royal Hart)", "details": "Mus musculus, ip, 5 min, 100 mg/kg, intraperitoneal, 10% oxygen, 5 minutes; read-out: % Survivors", "procedure": "as §1, §2, §3, §4, §5", "units": {"responders at 100 mg/kg": "%"}, "values": [{"compound": "N#Cc1cnn2c1N(C(=O)CN1CCN(Cc3ccccc3C(F)(F)F)CC1)CC=C2c1cccc(C(F)(F)F)c1", "note": "[Example 151, 4,5-Dihydro-7-[3-(trifluoromethyl)phenyl]-4-[[4-[[2-(trifluoromethyl)phenyl]methyl]-1-piperazinyl]acetyl]pyrazolo[1,5-a]pyrimidine-3-carbonitrile]", "responders at 100 mg/kg": 20}, {"compound": "CCC1=C(c2cccc(C(F)(F)F)c2)n2ncc(C#N)c2N(C(=O)CN2CCN(Cc3ccccc3)CC2)C1", "note": "[Example 161, 4,5-Dihydro-6-ethyl-4-[[4-(phenylmethyl)-1-piperazinyl]acetyl]-7-[3-(trifluoromethyl)phenyl]pyrazolo[1,5-a]pyrimidine-3-carbonitrile]", "responders at 100 mg/kg": 25}, {"compound": "CC1=C(c2cccc(C(F)(F)F)c2)n2ncc(C#N)c2N(C(=O)CN2CCN(Cc3ccccc3)CC2)C1", "note": "[Example 111, 4,5-Dihydro-6-methyl-4-[[4-(phenylmethyl)-1-piperazinyl]acetyl]-7-[3-(trifluoromethyl)phenyl]pyrazolo[1.5-a]pyrimidine-3-carbonitrile. dihydrochloride]", "responders at 100 mg/kg": 73}, {"compound": "CC1=C(c2cccc(C(F)(F)F)c2)n2ncc(C#N)c2N(C(=O)CN2CCN(Cc3cccc(C(F)(F)F)c3)CC2)C1", "note": "[Example 160, 4,5-Dihydro-6-methyl-7-[3-(trifluoromethyl)phenyl]-4-[[4-[[3-(trifluoromethyl)phenyl]methyl]-1-piperazinyl]acetyl]pyrazolo[1,5-a]pyrimidine-3-dihydrochloride]", "responders at 100 mg/kg": 40}, {"compound": "Cc1ccc(C)c(N2CCN(CC(=O)N3CC=C(c4cc(Cl)ccc4Cl)n4ncc(C#N)c43)CC2)c1", "note": "[Example 66, 7-(2,5-Dichlorophenyl)-4-[[4-(2,5-dimethylphenyl)-1-piperazinyl]acetyl]-4,5-dihydropyrazolo[1,5-a]pyrimidine-3-carbonitrile]", "responders at 100 mg/kg": 45}, {"compound": "N#Cc1cnn2c1N(C(=O)CN1CCN(Cc3ccccc3F)CC1)CC=C2c1cccc(C(F)(F)F)c1", "note": "[Example 156, 4-[[4-[(2-Fluorophenyl)methyl]-1-piperazinyl]acetyl]4,5-dihydro-7-[3-(trifluoromethyl)phenyl]pyrazolo[1,5-a]pyrimidine-3-carbonitrile]", "responders at 100 mg/kg": 55}, {"compound": "O=C(CN1CCN(Cc2ccccc2)CC1)N1CC=C(c2cccc(C(F)(F)F)c2)n2ncc(Br)c21", "note": "[Example 76, 3-Bromo-4,5-dihydro-4-[[4-(phenylmethyl)-1-piperazinyl]acetyl]-7-[3-(trifluoromethyl)phenyl]pyrazolo[1,5-a]pyrimidine]", "responders at 100 mg/kg": 35}, {"compound": "N#Cc1cnn2c1N(C(=O)CN1CCN(Cc3ccccc3)CC1)CC=C2c1ccc(Cl)cc1", "note": "[Example 58, 7-(4-Chlorophenyl)-4,5-dihydro-4-[[4-(phenylmethyl)-1-piperazinyl]acetyl]pyrazolo[1,5-a]pyrimidine-3-carbonitrile]", "responders at 100 mg/kg": 82.5}, {"compound": "COc1cccc(CN2CCN(CC(=O)N3CC=C(c4ccccc4)n4ncc(C#N)c43)CC2)c1", "note": "[Example 148, 4,5-Dihydro-4-[[4-[(3-methoxyphenyl)methyl]-1-piperazinyl]acetyl]-7-phenylpyrazolo[1,5-a]pyrimidine-3-carbonitrile]", "responders at 100 mg/kg": 55}, {"compound": "N#Cc1cnn2c1N(C(=O)CN1CCN(Cc3ccccc3C(F)(F)F)CC1)CC=C2c1ccc(Cl)cc1", "note": "[Example 59, 7-(4-Chlorophenyl)-4,5-dihydro-4-[[4-[[2-(trifluoromethyl)phenyl]methyl]-1-piperazinyl]acetyl]pyrazolo[1,5-a]pyrimidine-3-carbonitrile]", "responders at 100 mg/kg": 90}, {"compound": "COc1cccc(CN2CCN(CC(=O)N3CC(C)=C(c4cccc(Cl)c4)n4ncc(C#N)c43)CC2)c1", "note": "[Example 143, 7-(3-Chlorophenyl)-4,5-dihydro-4-[[4-[(3-methoxyphenyl)methyl]-1-piperazinyl]acetyl]-6-methylpyrazolo[1,5-a]pyrimidine-3-carbonitrile, dihydrochloride]", "responders at 100 mg/kg": 65}, {"compound": "O=C(CN1CCN(Cc2ccccc2)CC1)N1CC=C(c2cccc(C(F)(F)F)c2)n2ncc(Cl)c21", "note": "[Example 155, 3-Chloro-4,5-dihydro-4-[[4-(phenylmethyl-1-piperazinyl]acetyl]-7-[3-trifluoromethyl)phenylpyrazolo[1,5-a]pyrimidine, dihydrochloride]", "responders at 100 mg/kg": 25}, {"compound": "N#Cc1cnn2c1N(C(=O)CN1CCN(c3ccc(F)cc3)CC1)CC=C2c1cccc(C(F)(F)F)c1", "note": "[Example 153, 4-[[4-(4-Fluorophenyl)-1-piperazinyl]acetyl]4,5-dihydro-7-[3-(trifluoromethyl)phenyl]pyrazolo[1,5-a]pyrimidine-3-carbonitrile, monohydrochloride]", "responders at 100 mg/kg": 35}, {"compound": "N#Cc1cnn2c1N(C(=O)CN1CCN(Cc3ccccc3)CC1)CC=C2c1cc(Cl)ccc1Cl", "note": "[Example 62, 7-(2,5-Dichlorophenyl)-4,5-dihydro-4-[[4-(phenylmethyl)-1-piperazinyl]acetyl]pyrazolo[1,5-a]pyrimidine-3-carbonitrile]", "responders at 100 mg/kg": 50}, {"compound": "N#Cc1cnn2c1N(C(=O)CN1CCN(c3ccccc3)CC1)CC=C2c1cc(Cl)ccc1Cl", "note": "[7-(2,5-Dichlorophenyl)-4,5-dihydro-4-[(4-phenyl-1-piperazinyl)acetyl]pyrazolo[1,5-a]pyrimidine-3-carbonitrile]", "responders at 100 mg/kg": 70}]}, {"tested_on": "mice (hypoxic environment)", "assay": "Hypoxic survival test", "type": "in vivo, mouse (Royal Hart)", "details": "Mus musculus, ip, 5 min, 200 mg/kg, intraperitoneal, 10% oxygen, 5 minutes; read-out: % Survivors", "procedure": "as §1, §2, §3, §4, §5", "units": {"responders at 200 mg/kg": "%"}, "values": [{"compound": "Cc1ccc(C)c(N2CCN(CC(=O)N3CC=C(c4cc(Cl)ccc4Cl)n4ncc(C#N)c43)CC2)c1", "note": "[Example 66, 7-(2,5-Dichlorophenyl)-4-[[4-(2,5-dimethylphenyl)-1-piperazinyl]acetyl]-4,5-dihydropyrazolo[1,5-a]pyrimidine-3-carbonitrile]", "responders at 200 mg/kg": 80}, {"compound": "CC1=C(c2cccc(Cl)c2)n2ncc(C#N)c2N(C(=O)CN2CCN(Cc3cccc(C(F)(F)F)c3)CC2)C1", "note": "[Example 127, 7-(3-Chlorophenyl)-4,5-dihydro-6-methyl-4-[[4-[[3-(trifluoromethyl)phenyl]methyl]-1-piperazinyl]acetyl]pyrazolo[1,5-a]pyrimidine-3-carbonitrile]", "responders at 200 mg/kg": 73}]}]}
